Assay results taken from US20140005163A1 (NOVARTIS AG, priority 2010, published 2014).
In brackets after ≈: the same amount, converted by molar mass.

What was measured:
PI3K alpha = target: T1, PI3K alpha (Homo sapiens, UniProt P42336); assay: PI3K alpha kinase assay (Kinase-Glo luminescence); type: biochemical
T1 construct: p85(iSH2) fusion partner (see partner chain) (N); His tag (C); made in house; host or cells: baculovirus; Tn5 (Trichoplusia ni) or TiniPro insect cells
Procedure, shortened: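 IC50 is taken from a four-parameter logistic fit of 8-point dilutions, with Kinase-Glo luminescence reporting residual ATP. Reactions ran 60 min at room temperature in TRIS pH 7.5 buffer with MgCl2, NaCl, CHAPS and DTT. Final levels were 10 nM enzyme, 1 μM ATP and 10 μg/mL PI.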

[1] = test system: PKB Ser473 phosphorylation in Rat1-myr-HA-p110 alpha cells; assay: Reverse protein array assay, PKB Ser473 phosphorylation in Rat1-myr-p110 alpha cells; type: cell-based; settings: 0.5 h, pAkt Ser473, 30 minutes compound incubation, read-out: p-PKB IC50
Procedure, shortened: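 Compound exposure lasted 30 min in Rat1 cells bearing membrane-targeted HA-p110 isoforms, using 8 serial concentrations. Arrayed lysates, each spotted at four dilutions, gave relative fluorescence signals for phospho-Ser473 PKB.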

Solubility at pH 6.8 = type: physicochemical; settings: pH 6.8, aqueous buffer, thermodynamic from solid; read-out: solubility
Procedure, shortened: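 Following the procedure of Zhou et al. (2007), compound solubility was determined at pH 6.8.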

T1 sequence (P42336 with tags, fused parts or gaps limits assumed): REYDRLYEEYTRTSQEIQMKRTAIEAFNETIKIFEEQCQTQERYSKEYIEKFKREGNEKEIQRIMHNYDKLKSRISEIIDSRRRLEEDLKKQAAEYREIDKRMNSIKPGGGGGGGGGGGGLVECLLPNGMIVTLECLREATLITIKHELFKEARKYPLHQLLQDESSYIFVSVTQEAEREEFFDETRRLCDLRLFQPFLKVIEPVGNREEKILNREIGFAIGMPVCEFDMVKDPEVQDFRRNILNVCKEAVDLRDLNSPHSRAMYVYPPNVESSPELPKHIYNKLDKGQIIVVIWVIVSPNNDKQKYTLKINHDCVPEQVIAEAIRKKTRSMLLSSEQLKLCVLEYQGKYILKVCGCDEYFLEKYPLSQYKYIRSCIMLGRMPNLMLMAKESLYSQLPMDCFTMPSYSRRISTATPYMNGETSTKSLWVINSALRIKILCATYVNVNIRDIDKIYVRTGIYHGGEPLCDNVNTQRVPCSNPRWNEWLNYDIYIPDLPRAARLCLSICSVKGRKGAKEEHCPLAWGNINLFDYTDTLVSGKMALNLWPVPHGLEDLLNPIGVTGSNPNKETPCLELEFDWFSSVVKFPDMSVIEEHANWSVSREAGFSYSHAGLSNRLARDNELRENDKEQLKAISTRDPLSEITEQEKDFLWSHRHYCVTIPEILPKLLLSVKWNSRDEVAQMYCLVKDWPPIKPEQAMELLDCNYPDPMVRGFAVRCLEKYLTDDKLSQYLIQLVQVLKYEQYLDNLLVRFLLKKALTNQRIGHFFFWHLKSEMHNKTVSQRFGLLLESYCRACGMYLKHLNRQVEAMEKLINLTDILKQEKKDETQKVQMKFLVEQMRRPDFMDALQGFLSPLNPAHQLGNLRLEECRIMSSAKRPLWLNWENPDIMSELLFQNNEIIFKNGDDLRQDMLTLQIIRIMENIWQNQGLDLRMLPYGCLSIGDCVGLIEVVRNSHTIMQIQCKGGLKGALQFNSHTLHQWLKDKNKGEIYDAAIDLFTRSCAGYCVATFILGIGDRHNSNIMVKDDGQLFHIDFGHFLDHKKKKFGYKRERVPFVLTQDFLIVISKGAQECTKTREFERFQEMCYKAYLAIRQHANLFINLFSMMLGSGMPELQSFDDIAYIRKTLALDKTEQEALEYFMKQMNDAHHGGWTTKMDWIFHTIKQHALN

Row | SMILES | IC50 (PI3K alpha) | IC50 [1] | solubility (Solubility at pH 6.8)
1 | Cc1nn(C)cc1-n1c(=O)n(C)c2cnc3ccc(-c4ccc(C(N)=O)nc4)cc3c21 [Example 14, 5-[1-(1,3-Dimethyl-1H-pyrazol-4-yl)-3-methyl-2-oxo-2,3-dihydro-1H-imidazo[4,5-c]quinolin-8-yl]-pyridine-2-carboxylic acid amide] | 18 nM | 26 nM | 53 µg/mL (≈ 128 µM)
2 | CNC(=O)c1ccc(-c2ccc3ncc4c(c3c2)n(-c2c(C)nn(C)c2C)c(=O)n4C)cn1 [Example 15.2, 5-[3-Methyl-2-oxo-1-(1,3,5-trimethyl-1H-pyrazo1-4-yl)-2,3-dihydro-1H-imidazo[4,5-c]quinolin-8-yl]-pyridine-2-carboxylic acid methylamide] | 249 nM | 352 nM | 71 µg/mL (≈ 161 µM)
3 | Cc1nn(C)c(C)c1-n1c(=O)n(C)c2cnc3ccc(-c4ccc(CO)nc4)cc3c21 [Example 16.4, 8-(6-Hydroxymethyl-pyridin-3-yl)-3-methyl-1-(1,3,5-trimethyl-1H-pyrazol-4-yl)-1,3-dihydro-imidazo[4,5-c]quinolin-2-one] | 184 nM | 234 nM | > 414 µg/mL
4 | Cn1cc(-n2c(=O)n(C)c3cnc4ccc(-c5ccc(CO)nc5)cc4c32)c(Cl)n1 [Example 16.5, 1-(3-chloro-1-methyl-1H-pyrazol-4-yl)-8-(6-hydroxymethyl-pyridin-3-yl)-3-methyl-1,3-dihydro-imidazo[4,5-c]quinolin-2-one] | 3 nM | 8 nM | 15 µg/mL (≈ 35.6 µM)
5 | Cn1nccc1-n1c(=O)n(C)c2cnc3ccc(-c4ccc(NCCO)nc4)cc3c21 [Example 21.1, 8-[6-(2-Hydroxy-ethylamino)-pyridin-3-yl]-3-methyl-1-(2-methyl-2H-pyrazol-3-yl)-1,3-dihydro-imidazo[4,5-c]quinolin-2-one] | 272 nM | 191 nM | > 415 µg/mL
6 | CCOc1ccc(-c2ccc3ncc4c(c3c2)n(-c2c(C)nn(C)c2C)c(=O)n4C)cc1OCC [Example 27.2, 8-(3,4-Diethoxy-phenyl)-3-methyl-1-(1,3,5-trimethyl-1H-pyrazol-4-yl)-1,3-dihydro-imidazo[4,5-c]quinolin-2-one] | 48 nM | 14 nM | 4 µg/mL (≈ 8.48 µM)
7 | Cc1nn(C)cc1-n1c(=O)n(C)c2cnc3ccc(-c4cnc5ccccc5c4)cc3c21 [Example 38, 1-(1,3-Dimethyl-1H-pyrazol-4-yl)-3-methyl-8-quinolin-3-yl-1,3-dihydro-imidazo[4,5-c]quinolin-2-one] | 8 nM | 7 nM | 13 µg/mL (≈ 30.9 µM)
8 | Cc1nn(C)cc1-n1c(=O)n(C)c2cnc3ccc(-c4cccc(S(=O)(=O)N5CCCC5)c4)cc3c21 [Example 44, 1-(1,3-Dimethyl-1H-pyrazol-4-yl)-3-methyl-8-[3-(pyrrolidine-1-sulfonyl)-phenyl]-1,3-dihydro-imidazo[4,5-c]quinolin-2-one] | 70 nM | 41 nM | 8 µg/mL (≈ 15.9 µM)
9 | Cc1nn(C(C)C)cc1-n1c(=O)n(C)c2cnc3ccc(-c4cncc(N)c4)cc3c21 [Example 45.3, 8-(5-Amino-pyridin-3-yl)-1-(1-isopropyl-3-methyl-1H-pyrazol-4-yl)-3-methyl-1,3-dihydro-imidazo[4,5-c]quinolin-2-one] | 76 nM | 14 nM | 4 µg/mL (≈ 9.67 µM)
10 | Cc1nn(C)cc1-n1c(=O)n(C)c2cnc3ccc(-c4ccc(-n5cccn5)cc4)cc3c21 [Example 51.1, 1-(1,3-Dimethyl-1H-pyrazol-4-yl)-3-methyl-8-(4-pyrazol-1-yl-phenyl)-1,3-dihydro-imidazo[4,5-c]quinolin-2-one] | 23 nM | < 5 nM | 5 µg/mL (≈ 11.5 µM)
11 | Cc1cnn(C)c1-n1c(=O)n(C)c2cnc3ccc(-c4cncc(OC(C)C)c4)cc3c21 [Example 58.3, 1-(2,4-Dimethyl-2H-pyrazol-3-yl)-8-(5-isopropoxy-pyridin-3-yl)-3-methyl-1,3-dihydro-imidazo[4,5-c]quinolin-2-one] | 236 nM | 383 nM | 6 µg/mL (≈ 14 µM)
12 | COCCOc1cncc(-c2ccc3ncc4c(c3c2)n(-c2cn(C)nc2Cl)c(=O)n4C)c1 [Example 59.2, 1-(3-Chloro-1-methyl-1H-pyrazol-4-yl)-8-[5-(2-methoxy-ethoxy)-pyridin-3-yl]-3-methyl-1,3-dihydro-imidazo[4,5-c]quinolin-2-one] | 5 nM | 12 nM | 6 µg/mL (≈ 12.9 µM)
13 | CCOc1ncc(-c2ccc3ncc4c(c3c2)n(-c2cn(C)nc2C)c(=O)n4C)cc1N(C)C(C)=O [Example 63, N-{5-[1-(1,3-Dimethyl-1H-pyrazol-4-yl)-3-methyl-2-oxo-2,3-dihydro-1H-imidazo[4,5-c]quinolin-8-yl]-2-ethoxy-pyridin-3-yl}-N-methyl-acetamide] | 92 nM | 265 nM | > 486 µg/mL
14 | CCOc1cc(-c2ccc3ncc4c(c3c2)n(-c2c(C)nn(CC(=O)N(C)C)c2C)c(=O)n4C)cnc1C [Example 85.3, 2-{4-[8-(5-Ethoxy-6-methyl-pyridin-3-yl)-3-methyl-2-oxo-2,3-dihydro-imidazo[4,5-c]quinolin-1-yl]-3,5-dimethyl-pyrazol-1-yl}-N,N-dimethyl-acetamide] | 34 nM | 296 nM | 76 µg/mL (≈ 148 µM)
15 | COc1ncc(-c2ccc3ncc4c(c3c2)n(-c2cn(C)nc2Cl)c(=O)n4C)cc1N [Example 89, 8-(5-Amino-6-methoxy-pyridin-3-yl)-1-(3-chloro-1-methyl-1H-pyrazol-4-yl)-3-methyl-1,3-dihydro-imidazo[4,5-c]quinolin-2-one] | 18 nM | < 5 nM | 3 µg/mL (≈ 6.88 µM)
16 | Cc1nn(C)cc1-n1c(=O)n(C)c2cnc3ccc(-c4ccnc(OC(C)C)c4)cc3c21 [Example 92, 1-(1,3-Dimethyl-1H-pyrazol-4-yl)-8-(2-isopropoxy-pyridin-4-yl)-3-methyl-1,3-dihydro-imidazo[4,5-c]quinolin-2-one] | 104 nM | 244 nM | 7 µg/mL (≈ 16.3 µM)

Second part, the molecule after the results:

Row | IC50 (PI3K alpha) | IC50 [1] | solubility (Solubility at pH 6.8) | SMILES
17 | 10 nM | 78 nM | 25 µg/mL (≈ 65 µM) | Cc1cncc(-c2ccc3ncc4c(c3c2)n(-c2cn(C)nc2C)c(=O)n4C)c1 [Example 24, 1-(1,3-Dimethyl-1H-pyrazol-4-yl)-3-methyl-8-(5-methyl-pyridin-3-yl)-1,3-dihydro-imidazo[4,5-c]quinolin-2-one]
18 | 24 nM | 5 nM | 3 µg/mL (≈ 6.56 µM) | CCOc1ccc(-c2ccc3ncc4c(c3c2)n(-c2cn(CC)nc2C)c(=O)n4C)cc1OC [Example 29.1, 8-(4-Ethoxy-3-methoxy-phenyl)-1-(1-ethyl-3-methyl-1H-pyrazol-4-yl)-3-methyl-1,3-dihydro-imidazo[4,5-c]quinolin-2-one]
19 | 74 nM | 26 nM | 10 µg/mL (≈ 25 µM) | CCn1cc(-n2c(=O)n(C)c3cnc4ccc(-c5cncc(N)c5)cc4c32)c(C)n1 [Example 45.2, 8-(5-Amino-pyridin-3-yl)-1-(1-ethyl-3-methyl-1H-pyrazol-4-yl)-3-methyl-1,3-dihydro-imidazo[4,5-c]quinolin-2-one]
20 | 25 nM | 303 nM | > 486 µg/mL | CCOc1cncc(-c2ccc3ncc4c(c3c2)n(-c2cn(CC(=O)N(C)C)nc2C)c(=O)n4C)c1 [Example 56.2, 2-{4-[8-(5-Ethoxy-pyridin-3-yl)-3-methyl-2-oxo-2,3-dihydro-imidazo[4,5-c]quinolin-1-yl]-3-methyl-pyrazol-1-yl}-N,N-dimethyl-acetamide]
21 | 460 nM | 47 nM | 31 µg/mL (≈ 65.7 µM) | CCOc1ncc(-c2ccc3ncc4c(c3c2)n(-c2cn(C)nc2C)c(=O)n4C)cc1NC(C)=O [Example 65, N-{5-[1-(1,3-Dimethyl-1H-pyrazol-4-yl)-3-methyl-2-oxo-2,3-dihydro-1H-imidazo[4,5-c]quinolin-8-yl]-2-ethoxy-pyridin-3-yl}-acetamide]
22 | 6 nM | 180 nM | 13 µg/mL (≈ 27.2 µM) | Cc1ncc(-c2ccc3ncc4c(c3c2)n(-c2cn(C)nc2C)c(=O)n4C)cc1NS(C)(=O)=O [Example 76, N-{5-[1-(1,3-Dimethyl-1H-pyrazol-4-yl)-3-methyl-2-oxo-2,3-dihydro-1H-imidazo[4,5-c]quinolin-8-yl]-2-methyl-pyridin-3-yl}-methanesulfonamide]
23 | 30 nM | < 5 nM | 222 µg/mL (≈ 496 µM) | CCNc1cc(-c2ccc3ncc4c(c3c2)n(-c2cn(C)nc2Cl)c(=O)n4C)cnc1C [Example 87.2, 1-(3-Chloro-1-methyl-1H-pyrazol-4-yl)-8-(5-ethylamino-6-methyl-pyridin-3-yl)-3-methyl-1,3-dihydro-imidazo[4,5-c]quinolin-2-one]
24 | 9 nM | < 5 nM | > 442 µg/mL | CCNc1cc(-c2ccc3ncc4c(c3c2)n(-c2cn(CC)nc2C)c(=O)n4C)cnc1C [Example 87.3, 8-(5-Ethylamino-6-methyl-pyridin-3-yl)-1-(1-ethyl-3-methyl-1H-pyrazol-4-yl)-3-methyl-1,3-dihydro-imidazo[4,5-c]quinolin-2-one]
25 | 34 nM | < 5 nM | 8 µg/mL (≈ 18.7 µM) | CCN(C)c1ccc(-c2ccc3ncc4c(c3c2)n(-c2cn(C)nc2C)c(=O)n4C)cn1 [Example 98.1, 1-(1,3-Dimethyl-1H-pyrazol-4-yl)-8-[6-(ethyl-methyl-amino)-pyridin-3-yl]-3-methyl-1,3-dihydro-imidazo[4,5-c]quinolin-2-one]
